According to ChEMBL document CHEMBL4834424, “Targeting Chikungunya Virus Replication by Benzoannulene Inhibitors” (J Med Chem, 2021):
pEC50, pIC50: −log10 of the molar value. Calls of active or inactive are those of the source. The rule behind the calls is not given here.

Legend:
West Nile virus = experiment: (§1) Antiviral activity against West nile virus infected in HEK293 cells assessed as reduction in virus titer in cell supernatant by measuring inhibition of plaque formation using Vero cells at 10 uM measured following infection of supernatants with Vero cells for 48 hrs pi by serial dilution plaque based methylene blue dye analysis; assay type: functional
Chikungunya virus [1] = experiment: Antiviral activity against CHIKV-nLuc RNA transfected NHDF cells assessed as decrease in Nano-luc signal at 20 uM pretreated 24 hrs before transfection in presence of guanosine measured after 24 hrs by Nano-Glo luciferase assay; assay type: functional, organism-based
Chikungunya virus [2] = experiment: as §1, with “CHIKV LR2006-OPY1” for “West nile virus”, “Asian tiger mosquito C6/36” for “HEK293”, “and” for “at 10 uM”; assay type: functional
Chikungunya virus [3] = assay type: functional, organism-based; conditions: 181-25, NHDF, dose 20.0 µM, time 13.0 hrs
Chikungunya virus [4] = assay type: functional, organism-based; conditions: 181-25, NHDF, dose 20.0 µM, time 13.0 hrs; remark: listed apart in the source
[5] = (§2) Cytotoxicity against human NHDF cells assessed as cell viability measured after 24 hrs by Cell Titer Glo luminescent assay; assay type: cell-based; conditions: NHDF cells
Chikungunya virus [6] = experiment: Antiviral activity against CHIKV infected in mouse NIH3T3 cells assessed as reduction in virus titer in cell supernatant by measuring inhibition of plaque formation using Vero cells pretreated with NIH3T3 cells followed by infected with virus incubated for 24 hrs and measured following infection of supernatants with Vero cells for 48 hrs by plaque based methylene blue dye analysis; assay type: functional; conditions: dose 10 µM
Chikungunya virus [7] = assay type: functional, organism-based; conditions: 181-25, Vero, dose 10.0 µM, time 20.0 hrs
Chikungunya virus [8] = experiment: as §1, with “CHIKV 99659” for “West nile virus”, “Asian tiger mosquito C6/36” for “HEK293”, “and” for “at 10 uM”; assay type: functional; conditions: Chikungunya virus, 99659, C6
[9] = test system: Venezuelan equine encephalitis virus; experiment: Antiviral activity against Venezuelan equine encephalitis virus TC83 infected in human […] cells assessed as reduction in virus titer in cell supernatant by measuring inhibition of plaque formation using Vero cells at 10 uM measured following infection of supernatants with Vero cells for 48 hrs pi by serial dilution plaque based methylene blue dye analysis; assay type: functional, NHDF
Chikungunya virus [10] = experiment: Antiviral activity against resistance mutation induced CHIKV-117/119 infected in […] cells assessed as viral infectivity in Vero cells at 10 uM measured up to 24 hrs of post infection by supernatant was quantified by plaque assay; assay type: functional, organism-based; conditions: time hrs <=24
Onyong-nyong virus = experiment: as §1, with “O'nyong-nyong” for “West nile”, “Asian tiger mosquito C6/36” for “HEK293”, “and” for “at 10 uM”; assay type: functional
Chikungunya virus [11] = experiment: (§3) Antiviral activity against CHIKV infected in human NHDF cells assessed as reduction in virus titer in cell supernatant by measuring inhibition of plaque formation using Vero cells at 10 uM pretreated with NHDF cells followed by infected with virus incubated for 24 hrs and measured following infection of supernatants with Vero cells for 48 hrs by plaque based methylene blue dye analysis; assay type: functional; conditions: time 72 hrs
Chikungunya virus [12] = assay type: functional, organism-based; conditions: 181-25, NHDF, dose 20.0 µM, time 13.0 hrs; remark: listed apart in the source
Chikungunya virus [13] = experiment: Antiviral activity against CHIKV-nLuc RNA transfected NHDF cells assessed as decrease in CHIKV RNA at 10 uM pretreated 1 hr before transfection measured after 12 hrs by Nano-Glo luciferase assay; assay type: functional, organism-based; conditions: time 13.0 hrs
[14] = as §1, with “Ross river” for “West nile”, “Asian tiger mosquito C6/36” for “HEK293”, “and” for “at 10 uM”; assay type: functional; conditions: La Crosse virus
Chikungunya virus [15] = experiment: Antiviral activity against resistance mutation induced CHIKV-119 infected in […] cells assessed as viral infectivity in Vero cells at 10 uM measured up to 24 hrs of post infection by supernatant was quantified by plaque assay; assay type: functional, organism-based; conditions: time hrs <=24
Chikungunya virus [16] = experiment: as §1, with “CHIKV 37997” for “West nile virus”, “Asian tiger mosquito C6/36” for “HEK293”, “and” for “at 10 uM”; assay type: functional; conditions: Chikungunya virus, 37997, C6
Una virus = experiment: (§4) Antiviral activity against Una virus MAC150 infected in Asian tiger mosquito C6/36 cells assessed as reduction in virus titer in cell supernatant by measuring inhibition of plaque formation using Vero cells and measured following infection of supernatants with Vero cells for 48 hrs pi by serial dilution plaque based methylene blue dye analysis; assay type: functional
[17] = test system: Venezuelan equine encephalitis virus; experiment: as §4, with “Venezuelan equine encephalitis” for “Una”, “TC83” for “MAC150”; assay type: functional
[18] = biological target: Dihydroorotate dehydrogenase (quinone), mitochondrial (Homo sapiens, UniProt Q02127)
[19] = Cytotoxicity against HEK293 cells at 10 uM; assay type: cell-based; conditions: human
dengue virus type 2 = experiment: as §1, with “DENV2” for “West nile virus”; assay type: functional
Chikungunya virus [20] = experiment: Antiviral activity against resistance mutation induced CHIKV-117 infected in […] cells assessed as viral infectivity in Vero cells at 10 uM measured up to 24 hrs of post infection by supernatant was quantified by plaque assay; assay type: functional, organism-based; conditions: time hrs <=24
Mayaro virus = experiment: as §4, with “Mayaro” for “Una”, “TRVL” for “MAC150”; assay type: functional
Chikungunya virus [21] = experiment: Antiviral activity against CHIKV infected in IFN regulatory factor 3 telomerized human fibroblast cells assessed as reduction in virus titer in cell supernatant by measuring inhibition of plaque formation using Vero cells […] followed by infected with virus incubated for 24 hrs and measured following infection of supernatants with Vero cells for 48 hrs by plaque based …; assay type: functional; conditions: time 72 hrs
Chikungunya virus [22] = experiment: Antiviral activity against CHIKV-nLuc RNA transfected NHDF cells assessed as decrease in Nano-luc signal at 20 uM pretreated 24 hrs before transfection in presence of uridine measured after 24 hrs by Nano-Glo luciferase assay; assay type: functional, organism-based; conditions: time 48.0 hrs
Chikungunya virus [23] = assay type: functional, organism-based; conditions: 181-25, NHDF, dose 20.0 µM, time 13.0 hrs; remark: listed apart in the source
NHDF = experiment: as §2; assay type: cell-based; conditions: nhdf, 24 h
Chikungunya virus [24] = assay type: functional, organism-based; conditions: 181-25, NIH3T3, dose 10.0 µM
Chikungunya virus [25] = experiment: Antiviral activity against wild type CHIKV-117 infected in […] cells assessed as viral infectivity in Vero cells at 10 uM measured up to 24 hrs of post infection by supernatant was quantified by plaque assay; assay type: functional; conditions: time hrs <=24
Chikungunya virus [26] = experiment: as §3, with “cells” for “cells at 10 uM”; assay type: functional, organism-based
Chikungunya virus [27] = assay type: functional; conditions: 181-25, C6, time 48 hrs

Sequence of Dihydroorotate dehydrogenase (quinone), mitochondrial (Q02127 whole entry): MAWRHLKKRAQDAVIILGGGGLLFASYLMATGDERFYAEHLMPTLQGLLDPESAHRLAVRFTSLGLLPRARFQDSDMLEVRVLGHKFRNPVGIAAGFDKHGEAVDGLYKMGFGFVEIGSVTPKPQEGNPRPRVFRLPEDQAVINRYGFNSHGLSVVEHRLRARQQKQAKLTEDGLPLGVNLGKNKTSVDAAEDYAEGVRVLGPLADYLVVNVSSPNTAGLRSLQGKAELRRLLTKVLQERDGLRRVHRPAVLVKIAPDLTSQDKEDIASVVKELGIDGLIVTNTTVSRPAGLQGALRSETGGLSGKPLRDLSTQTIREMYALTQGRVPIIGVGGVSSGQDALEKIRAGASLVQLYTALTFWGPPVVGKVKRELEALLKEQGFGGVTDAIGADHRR

SMILES	Activity (Chikungunya virus [1])	EC90 (Chikungunya virus [2]) [nM]	inhibition (Chikungunya virus [3])	EC90 (Chikungunya virus [6]) [nM]	EC90 (Chikungunya virus [8]) [nM]	Activity (Chikungunya virus [10])	EC90 (Onyong-nyong virus) [nM]	log(activity) (Chikungunya virus [11])	inhibition (Chikungunya virus [12])	inhibition (Chikungunya virus [13])	EC90 [14] [nM]	Activity (Chikungunya virus [15])	EC90 (Chikungunya virus [16]) [nM]	EC90 [17] [nM]	pIC50 [18]	Activity (Chikungunya virus [20])	EC90 (Mayaro virus) [nM]	EC90 (Chikungunya virus [21]) [nM]	Activity (Chikungunya virus [22])	other results
COc1cc2c(cc1NC(=O)c1ccc(C(C)(C)C)cc1)CCCCC2	Active	150	Active	1010	780	Active	180	4	Active	Active	210	Active	180	2900	5.46	Active	250	4870	inactive	log(activity) (West Nile virus): 2; inhibition (Chikungunya virus [4]): Active; CC50 at 24 h [5]: 78.5 µM; inhibition (Chikungunya virus [7]): Active; log(activity) [9]: 2.7; EC90 (Una virus): 340 nM; CC50 [19]: > 30 µM; log(activity) (dengue virus type 2): 1.5; inhibition (Chikungunya virus [23]): Active
COc1cc2c(cc1NC(=O)c1ccc(C(C)(C)C)cc1)CCCC2	Active	400	Active	3160	1000	Active	300	2.5	Active	Active	320	Active	3390	2100	5.30	Active	5100	1030	inactive	CC50 (NHDF): 169 µM; Activity (Chikungunya virus [24]): Active; log(activity) (Chikungunya virus [25]): 1.5; pEC50 (Chikungunya virus [26]): 5.84; EC90 (Chikungunya virus [27]): 1450 nM
